Experimental data taken from the supplement of paper PMC10307832.

Legend:
Experiment in all cases: relative viability (nuclei count vs DMSO), 5 days (fraction); higher = more cells survive
Fedratinib + Trametinib = compound: Cc1cnc(Nc2ccc(OCCN3CCCC3)cc2)nc1Nc1cccc(S(=O)(=O)NC(C)(C)C)c1 [Fedratinib] + CC(=O)Nc1cccc(-n2c(=O)n(C3CC3)c(=O)c3c(Nc4ccc(I)cc4F)n(C)c(=O)c(C)c32)c1 [Trametinib] (partner 0.02 µM)
Outline: (§1)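 Medians of duplicate plates are given as relative viability. That measure is the nuclei count in treated wells divided by the count in vehicle wells. Counts were taken on 4× images of lung cancer cell lines in 1536-well plates, 5 days after pin-tool dosing the day after seeding with one drug alone or a fixed anchor-drug dose plus five library-drug doses (not always all listed) in √10 steps.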

Fedratinib + AZD7762 = compound: Cc1cnc(Nc2ccc(OCCN3CCCC3)cc2)nc1Nc1cccc(S(=O)(=O)NC(C)(C)C)c1 [Fedratinib] + NC(=O)Nc1cc(-c2cccc(F)c2)sc1C(=O)N[C@H]1CCCNC1 [AZD7762] (partner 0.2 µM)
Outline: as §1

GW-2580 + Pictilisib = compound: COC1=CC=C(C=C1)COC2=C(C=C(C=C2)CC3=CN=C(N=C3N)N)OC [GW-2580] + CS(=O)(=O)N1CCN(Cc2cc3nc(-c4cccc5[nH]ncc45)nc(N4CCOCC4)c3s2)CC1 [Pictilisib] (partner 1 µM)
Outline: as §1

GW-2580 + Vorinostat = compound: COC1=CC=C(C=C1)COC2=C(C=C(C=C2)CC3=CN=C(N=C3N)N)OC [GW-2580] + O=C(CCCCCCC(=O)Nc1ccccc1)NO [Vorinostat] (partner 1 µM)
Outline: as §1

GW-2580 + Foretinib = compound: COC1=CC=C(C=C1)COC2=C(C=C(C=C2)CC3=CN=C(N=C3N)N)OC [GW-2580] + COc1cc2c(Oc3ccc(NC(=O)C4(C(=O)Nc5ccc(F)cc5)CC4)cc3F)ccnc2cc1OCCCN1CCOCC1 [Foretinib] (partner 0.25 µM)
Outline: as §1

| Cell Line | relative viability (Fedratinib + Trametinib; first compound 0.1 µM) | relative viability (Fedratinib + Trametinib; first compound 0.3162 µM) | relative viability (Fedratinib + Trametinib; first compound 1 µM) | relative viability (Fedratinib + AZD7762; first compound 0.1 µM) | relative viability (Fedratinib + AZD7762; first compound 0.3162 µM) | relative viability (Fedratinib + AZD7762; first compound 1 µM) | relative viability (GW-2580 + Pictilisib; first compound 0.08 µM) | relative viability (GW-2580 + Pictilisib; first compound 0.8 µM) | relative viability (GW-2580 + Pictilisib; first compound 2.53 µM) | relative viability (GW-2580 + Pictilisib; first compound 8 µM) | relative viability (GW-2580 + Vorinostat; first compound 0.08 µM) | relative viability (GW-2580 + Vorinostat; first compound 0.8 µM) | relative viability (GW-2580 + Vorinostat; first compound 2.53 µM) | relative viability (GW-2580 + Vorinostat; first compound 8 µM) | relative viability (GW-2580 + Foretinib; first compound 0.08 µM) | relative viability (GW-2580 + Foretinib; first compound 0.8 µM) | relative viability (GW-2580 + Foretinib; first compound 2.53 µM) | relative viability (GW-2580 + Foretinib; first compound 8 µM) |
| --- | --- | --- | --- | --- | --- | --- | --- | --- | --- | --- | --- | --- | --- | --- | --- | --- | --- | --- |
| HCC-827 | 0.515 | 0.567 | 0.503 | 0.161 | 0.205 | 0.219 | 1.01 | 1.01 | 0.949 | 0.963 | 0.652 | 0.915 | 0.828 | 0.832 | 1.13 | 1.02 | 1.02 | 0.905 |
| HOP-62 | 0.355 | 0.392 | 0.393 | 0.734 | 0.566 | 0.555 | 0.909 | 0.72 | 0.63 | 0.736 | 0.736 | 0.73 | 0.539 | 0.731 | 1.27 | 1.25 | 1.02 | 1.11 |
| IA-LM | – | – | – | – | – | – | 0.315 | 0.324 | 0.398 | 0.405 | – | 1.21 | 0.851 | 1.07 | 1.17 | 1.28 | 1.26 | 0.952 |
| LC-2-ad | 0.898 | 0.904 | 0.933 | 0.829 | 0.863 | 0.818 | 0.577 | 0.502 | 0.447 | 0.413 | 0.728 | 0.751 | 0.76 | 0.712 | 0.826 | 0.931 | 0.991 | 0.936 |
| LCLC-97TM1 | 0.234 | 0.202 | 0.18 | 0.342 | 0.154 | 0.21 | 0.197 | – | 0.159 | 0.181 | 0.806 | 0.74 | 0.659 | 0.684 | 1.01 | 0.961 | 1.01 | 0.884 |
| NCI-H520 | 0.476 | 0.801 | 0.63 | – | – | – | 0.35 | 0.287 | 0.279 | 0.332 | 0.935 | 0.651 | 0.768 | 0.682 | 0.804 | 0.627 | 0.783 | 0.762 |
| NCI-H522 | 0.675 | 0.62 | 0.681 | 0.829 | 0.851 | 0.77 | – | – | – | – | 0.976 | 0.862 | 0.861 | 0.986 | – | – | – | – |
| NCI-H661 | 0.511 | 0.622 | 0.409 | – | – | – | 0.343 | 0.377 | 0.321 | 0.361 | 0.86 | 0.801 | 0.767 | 0.632 | 1.08 | 0.987 | 1.03 | 0.771 |
| NCI-H1299 | – | – | – | – | – | – | 0.776 | 0.736 | 0.773 | 0.748 | – | – | – | – | 1.17 | 1.09 | 0.981 | 0.971 |
| NCI-H1563 | – | – | – | – | – | – | 0.686 | 0.661 | 0.655 | 0.642 | – | – | – | – | 0.886 | 0.961 | 0.886 | 0.905 |
| NCI-H1623 | – | – | – | – | – | – | – | – | – | – | – | – | – | – | 0.866 | 1.01 | 0.725 | 0.986 |
| NCI-H1648 | 0.383 | 0.441 | 0.43 | 0.818 | 0.558 | 0.548 | – | – | – | – | 0.761 | – | 0.541 | 0.496 | – | – | – | – |
